Legend:
Concanavalin A (Con A) = Concanavalin A (Con A) (Canavalia ensiformis, UniProt P02866); assay: Con A aggregation / shelf-life at pH 6.5 and 37° C.; format: physicochemical; conditions: isotonic concentrations, 40 mM sodium phosphate pH 6.5, 37° C., time for 5% loss of protein vs no additive
Description: This Shelf-Life Extension Factor was determined by comparing the length of time, t95, for a 5% loss of protein when in the presence of the compounds to the original length of time, t95,0 for a 5% loss. For comparison purposes, isotonic concentrations (as determined by VPO) of the compounds were used and Shelf-Life Extension Factor values for commonly used excipients at isotonic concentrations are shown as well. Shelf-life values of aCgn were determined at 52.5° C. and at 37° C. for Con A.

[1] = target: T1, α-chymotrypsinogen A (aCgn) (Bos taurus, UniProt P00766); assay: aCgn aggregation (monomer loss) at 52.5° C. by size exclusion HPLC; format: physicochemical, Bovine; conditions: for relative rate constant for aCgn monomer loss: additive concentration near 0.2 M; for aCgn t95/t95, 0 (Shelf-Life Extension Factor): isotonic concentrations, 20 mM sodium citrate pH 5, 52.5° C., time for 5% loss of protein vs no additive
Description: The aggregation of aCgn was accelerated by incubating samples at an elevated temperature. […] In addition to all aggregation experiments being conducted at that temperature, all samples contained 10 mg/mL aCgn, held at pH 5.0 using a 20 mM sodium citrate buffer. 50 μL aliquots of each protein-cosolute mixture were placed in 0.2 mL polymerase chain reaction (PCR) tubes and then incubated in a Bio-Rad Mycycler thermal cycler with a timer initiated when the thermal cycler reached the desired temperature. Each series contained 12 samples and up to 8 different mixtures were tested at the same time during any given experiment. Samples were removed periodically and immediately placed in an ice bath to quench the aggregation reaction. The length of each experiment was planned so that the extent of reaction was such that at least 20% of the protein aggregated, making changes in the rate of aggregation pronounced. After at least five minutes in the ice bath, the samples were briefly spun in a minicentrifuge to remove precipitated aggregates and then transferred to autosampler vials.
All aCgn samples were first treated with phenylmethylsulfonyl fluoride to inhibit residual amounts of active enzyme and, after dialysis, solutions were frozen, rather than lyophilized, in 0.3 mL aliquots and used within 6 months. […] Solutions for the aggregation study were prepared by first preparing a solution of the cosolute of interest in a 20 mM sodium citrate pH 5 buffer at a concentration double that of interest (adjusting the pH to 5 if needed with the appropriate acid or an 8 M sodium hydroxide solution), then mixing 0.3 mL of this solution with 0.3 mL of a thawed aCgn solution. This solution was then divided into twelve aliquots, each 50 μL in volume, and incubated at an elevated temperature, as described below.
15 μL, of each aCgn sample were injected into an Agilent 1200 series HPLC, equipped with a Zorbax GF-250 (4.6×250 mm, 4 micron) size exclusion column and a UV-Vis detector, during a sequence. The HPLC mobile phase contained 25 mM citric acid monohydrate, 25 mM sodium acetate, and 200 mM sodium chloride with the pH adjusted to 4.0 using sodium hydroxide. The flow rate was set at 1 mL/min and samples were monitored at 280 nm.
Peak area at each time point was compared to the peak area for an unstressed sample to create a monomer loss profile normalized with respect to the initial concentration. Each profile was compared to a profile for a sample containing no cosolute to determine the change in aggregation rate upon addition of the cosolute. For a control, each aggregation experimental setup had one protein solution that contained no cosolute to verify that the baseline aggregation rate remained constant amongst all experiments.
The most notable consequence of perturbing a protein's environment is the enhancement or inhibition of protein aggregation. Deyoung L R et al. (1993) Accounts Chem Res 26:614-620; Fink A L (1998) Fold Des 3:R9-R23. The guanidinium-modified dendrimers were added to model protein solutions and incubated at an elevated temperature to determine how they influence the rate of this degradation pathway. […] At low dendrimer concentrations (0.05 M), the rate of monomer loss in the presence of the surface-modified dendrimer is slower than when compared to the reference solution. However, this aggregation rate reduction is insignificant when compared to the rate reduction induced by a high concentration of other commonly used additives such as arginine hydrochloride (ArgHCl), which is also depicted in the figure. Furthermore, as the concentration of the surface-modified dendrimer is increased, the aggregation rate reduction decreases until ultimately, the rate of aggregation is increased. At a concentration of 0.2 M, the surface-modified dendrimer induced rapid aggregation, causing a 50% loss in about 10 minutes as opposed to 30 minutes for the solution containing no cosolute. […]

[2] = target: T1, α-chymotrypsinogen A (aCgn); assay: Preferential interaction with aCgn by vapor pressure osmometry (VPO); format: physicochemical, Bovine; conditions: for Γ23/[3] preferential interaction with aCgn: 50 mg/mL aCgn, 20 mM sodium citrate pH 5, maximum dendrimer 0.2 mol/L; for Γexp preferential interaction coefficient of aCgn: 0.17-[…] dendrimer salt, VPO
Description: Osmolality measurements were carried out according to the previously described procedure. For improved accuracy, all samples were prepared gravimetrically using a Mettler Toledo balance with a precision of 0.1 mg. Partial molar volume values of the
Stock solutions of both BSA and lysozyme and stock solutions of the cosolutes were each prepared in a 40 mM sodium phosphate buffer, pH 6.0 (aCgn measurements were conducted in 20 mM sodium citrate buffer, pH 3.5 or pH 5.0). Stock solutions of the cosolutes were used so that a series of samples could be easily produced with varying solute concentrations by dilution with water and buffer. The protein stock solutions were further purified by placing the solutions under dialysis for 48 hours at room temperature against two changes of buffer (1 L each). […] To determine the concentration, samples of each stock solution were diluted gravimetrically with water to a final optical density of about 1.0 and the concentration determined spectrophotometrically with a PerkinElmer Lambda 35 UV/Vis spectrometer. It should be noted that the protein stock solutions were stored at 4° C. and used within one week of their preparation.
[formula] A Wescor Vapro® vapor pressure osmometer (model 5520) was used for all osmometry measurements. The instrument was calibrated using 0.1, 0.29, and 1 mol/kg osmolality standards provided by Wescor. Due to slight drifts in the calibration points, the instrument was recalibrated after every four measurements and the thermocouple was cleaned daily using concentrated ammonium hydroxide followed by a rinse with HPLC grade water. […] The data sets for each cosolute included at least 16 individually made solutions (both for the sets with and without the protein). Each sample contained approximately 80 μL of solution (40 μL of diluted cosolute stock solution and 40 μL of the protein stock solution). A minimum of three measurements on each solution were made. If the standard deviation for a particular solution was greater than 2 mmol/kg, more measurements were taken or another sample was prepared. For a given solute, data representing the dependence of osmolality on solute molality were fitted by a quadratic equation, with all fitting parameters floated. Data were weighted by the standard deviation of the individual osmolality measurements for the same solution using the nonlinear fitting program Igor Pro.
To gain further insight into how the modified dendrimer salts inhibit protein-protein interactions, preferential interaction coefficient (Γ23) values at various concentrations were determined, both experimentally via vapor pressure osmometry (VPO) measurements and computationally via MD simulations. The experimental results for the interaction between modified generation 0 PAMAM dendrimers and aCgn are expressed in Table 2, which summarizes the polynomial fit and uncertainty of the experimental data. Theoretical preferential interaction coefficient values were computed from the MD simulation using the procedure outlined in our previous work. Baynes B M and Trout B L (2003) J Phys Chem B 107:14058-14067; Shukla D et al. (2009) J Phys Chem B 113:12546-12554.

| Compound | Con A t95/t95, 0 (Shelf-Life Extension Factor) (Concanavalin A (Con A); listed as Dend. 0 Gdm(H2PO4)) | Con A t95/t95, 0 (Shelf-Life Extension Factor) (Concanavalin A (Con A); listed as phosphate form) | relative rate constant for aCgn monomer loss ([1]; 10 mg/mL aCgn, pH 5, 52.5° C.) | aCgn t95/t95, 0 (Shelf-Life Extension Factor) [1] | Γ23/[3] preferential interaction with aCgn [2] [mol/mol] | Γexp preferential interaction coefficient of aCgn [2] | Con A t95/t95, 0 (Shelf-Life Extension Factor) (Concanavalin A (Con A)) | aCgn aggregation suppression compared with other salt forms / generations (FIG. 5, 6, 8) ([1]; 10 mg/mL aCgn, pH 5, 52.5° C.) |
| --- | --- | --- | --- | --- | --- | --- | --- | --- |
| N=C(N)NCCNC(=O)CCN(CCC(=O)NCCNC(=N)N)CCN(CCC(=O)NCCNC(=N)N)CCC(=O)NCCNC(=N)N.O=P(O)(O)O.O=P(O)(O)O.O=P(O)(O)O.O=P(O)(O)O.O=P(O)(O)O.O=P(O)(O)O [Gdm(H2PO4)] | 1.6 | minimal improvement | approximately 0.02 | 18.9 | −15.8 ± 5.0 | −2.9 | – | – |
| N=C(N)NCCNC(=O)CCN(CCC(=O)NCCNC(=N)N)CCN(CCC(=O)NCCNC(=N)N)CCC(=O)NCCNC(=N)N.O=S(=O)(O)O.O=S(=O)(O)O.O=S(=O)(O)O [Gdm(SO4)1/2] | – | – | approximately 0.02 | 26.9 | −17.0 ± 4.4 | −3.1 | 5.9 | nearly identical ability for inhibiting aggregation as the H2PO4 salt form |
